In patent US7635686B2, “Therapeutically useful triethyleneglycol cholesteryl oligonucleotides” (Bioniche Life Sciences, Inc., priority 2001, dated 2009):
{TEG-Chol} = cholesteryl attached through a triethylene glycol (TEG) linker

Assays:
[1] = tested on: MDA-MB-231 (MDA-231) cells; assay: Treatment of pre-formed 3-dimensional MDA-231 structures on MATRIGEL; assay type: cell-based, human; conditions: MDA-231, 53 μM, repeated every 3-4 days up to 17-21 days, FIG. 4
Procedure: The MDA-MB-231 (MDA-231) cells were cultured in regular culture medium, trypsinized and counted. 100×10^3 of MDA-231 cells were plated in regular culture medium (RCM), in wells of 24-well plates coated with 350 μl of MATRIGEL®. After the formation of 3-dimensional structures during 48 hrs without any treatment, the medium was changed, and structures were exposed to a final concentration of 53 μM of SEQ ID NO:3, 53 μM of SEQ ID NO:7, 53 μM of cholesteryl-TEG phosphoramidite, RCM, or their respective control media (RCM with water, RCM with DMSO or RCM with acetonitrile). The treatments were repeated every 3-4 days until a maximum time in culture of 17-21 days. The experiment was repeated three times. Digital photographs of the cells in the 24-well plates were taken using a Nikon Coolpix 990 digital camera connected to a Nikon inverted microscope model TMS.

EL-4 cells = assay: Activation of caspase 3 in EL-4 cells (PE-antibody flow cytometry); assay type: cell-based, murine; conditions: 53 μM, 72 hrs; for Percentage of cells containing activated caspase-3: EL-4 cells, untreated 3
Procedure: EL-4 cells (2.5×10^5 cells/ml) were incubated for 72 hrs with 0 μM (control), 53 μM of SEQ ID NO:3 or 53 μM of SEQ ID NO:7. After incubation, both control and treated cells were washed, fixed, permeabilized and incubated with a Phycoerythrin (PE)-conjugated antibody that recognizes the active catalytic unit of caspase 3 (Clone: C92-605; BD Pharmingen, San Diego, Calif., USA) using the conditions recommended by the manufacturer. Fluorescence associated with active caspase 3 was analyzed by flow cytometry on a FACSCALIBUR using the program CellQUEST (both from Becton Dickinson, San Jose, Calif., USA).

[2] = tested on: MDA-MB-231 (MDA-231) cells; assay: Cellular proliferation of MDA-231 cells (Trypan blue exclusion count); assay type: cell-based, human; conditions: MDA-231, 53 μM; for Effect on cellular proliferation (in words): 72 hrs; for Percentage of changes in cellular proliferation compared to controls (mean ± s.d.): cultured for 3 days, + stimulation, − inhibition, three independent assays
Procedure: Either 20×10^3 MDA-MB-231 (MDA-231) or Hs578T cells were plated into individual wells of 24-well plates in regular culture medium (RCM) presence or absence (control) of 53 μM (final concentration) of SEQ ID NO:3, SEQ ID NO:7, 53 μM cholesteryl-TEG phosphoramidite, or corresponding control media (regular culture medium (RCM) for SEQ ID NO:3, RCM with the same amount of water as the amount added with the SEQ ID NO:7, and RCM with the same amount of acetonitrile as the amount added with cholesteryl-TEG phosphoramidite). Cells were cultured for 72 hrs, removed with trypsin and counted with an hemocytometer using the Trypan blue exclusion technique. Results of three independent assays (mean and standard deviation (s.d.) of percentage of changes compared to controls) are shown in Table 9.

[3] = tested on: EL-4 murine T lymphoma cells; assay: EL-4 lymphoma implanted subcutaneously in C57/BL6 mice; assay type: in vivo; conditions: 1, 10, 100 mg/kg, after 4 weeks of treatment; versus saline and SEQ ID NO:3; dose-dependent
Procedure: EL-4 murine T lymphoma cells are implanted subcutaneously into C57/BL6 mice as previously described (Krawczyk et al., Cancer Immunol. Immunother. 40:347, 1995). The mice are divided into 7 groups of 10 mice. On day 0, group 1 mice receive saline, group 2 mice receive 1 mg/kg SEQ ID NO:3, group 3 mice receive 10 mg/kg SEQ ID NO:3, group 4 mice receive 100 mg/kg SEQ ID NO:3, group 5 mice receive 1 mg/kg SEQ ID NO:7, group 6 mice receive 10 mg/kg SEQ ID NO:7, group 7 mice receive 100 mg/kg SEQ ID NO:7. After 4 weeks of treatment, the mice are sacrificed and tumor mass is determined.

MDA-MB-231 cells [4] = assay: MDA-MB-231 xenotransplanted tumors in nude mice (Example 23); assay type: in vivo; conditions: 0.4, 4, 40 mg/kg intravenously every 3 days, 6 doses maximum; versus saline and SEQ ID NO:3; dose-dependent
Procedure: Breast cancer MDA-MB-231 cells are xenotransplanted subcutaneously in nude mice (1×10^7 cells). The mice are divided into 7 groups of 10 mice. After the tumors reach […] in diameter, group 1 mice receive saline, group 2 mice receive 0.4 mg/kg SEQ ID NO:3, group 3 mice receive 4 mg/kg SEQ ID NO:3, group 4 mice receive 40 mg/kg SEQ ID NO:3, group 5 mice receive 0.4 mg/kg SEQ ID NO:7, group 6 mice receive 4 mg/kg SEQ ID NO:7, group 7 mice receive 40 mg/kg SEQ ID NO:7. Treatments are given intravenously every 3 days for 6 doses maximum. Mice are sacrificed when tumor reach 1 cm in diameter, at any sign of distress or at the end of the study (3 months from cell injection). Complete autopsies are performed. Tumor mass, presence of invasion and metastasis are determined.

MDA-MB-231 cells [5] = assay: MDA-MB-231 xenotransplanted tumors in nude mice (Example 22); assay type: in vivo; conditions: 0.5, 5, 50 mg/kg intravenously every 3 days, 6 doses maximum; versus saline and SEQ ID NO:3; dose-dependent
Procedure: MDA-MB-231 cells are xenotransplanted subcutaneously into nude mice. The mice are divided into 7 groups of 10 mice. After the tumors reach 5 mm in diameter, group 1 mice receive saline, group 2 mice receive 0.5 mg/kg SEQ ID NO:3, group 3 mice receive 5 mg/kg SEQ ID NO:3, group 4 mice receive 50 mg/kg SEQ ID NO:3, group 5 mice receive 0.5 mg/kg SEQ ID NO:7, group 6 mice receive 5 mg/kg SEQ ID NO:7, group 7 mice receive 50 mg/kg SEQ ID NO:7. Treatments are given intravenously every 3 days for 6 doses maximum. Mice are sacrificed when tumor reach 1 cm in diameter, at any sign of distress or at the end of the study (3 months from cell injection). Complete autopsies are performed. Tumor mass, presence of invasion and metastasis are determined.

5′ OH-CCACCC-OH 3′ (listed as DNA, chemistry not fully specified) [SEQ ID NO:3]
Effect on pre-formed 3-dimensional structures on MATRIGEL [1]: did not affect the 3-dimensional structures | Activation of caspase-3 in EL-4 cells (in words) (EL-4 cells): inactive | Percentage of cells containing activated caspase-3 (EL-4 cells): 4% | Effect on cellular proliferation (in words) [2]: did not significantly affect cellular proliferation | Percentage of changes in cellular proliferation compared to controls (mean ± s.d.) [2]: +6.9 ± 5%

5′ OH-CCACCC(TEG-cholesteryl) 3′ (3' {TEG-Chol}, sugars by position and backbone not given here) [SEQ ID NO:7]
Tumor mass [3]: less tumor mass | Tumor mass and metastasis (MDA-MB-231 cells [4]): less tumor mass and metastasis | Effect on pre-formed 3-dimensional structures on MATRIGEL [1]: disrupted the growth pattern of the structures | Tumor mass (MDA-MB-231 cells [5]): less tumor mass | Activation of caspase-3 in EL-4 cells (in words) (EL-4 cells): capacity to induce apoptosis as measured by the activation of caspase-3 | Percentage of cells containing activated caspase-3 (EL-4 cells): 38% | Effect on cellular proliferation (in words) [2]: capacity to inhibit cellular proliferation | Percentage of changes in cellular proliferation compared to controls (mean ± s.d.) [2]: −97.9 ± 2.5%
